Measurements: patent publication US6300350A, “Treatment of emphysema using RARy selective retinoid agonists” (priority 2000, dated 2001)
pIC50: −log10 of the molar value.

Assays:
RARβ = biological target: T1, RARβ (Homo sapiens, UniProt P10826); test: Binding, RARβ (ligand binding assay); conditions: Table II
T1 sequence (P10826 1-455): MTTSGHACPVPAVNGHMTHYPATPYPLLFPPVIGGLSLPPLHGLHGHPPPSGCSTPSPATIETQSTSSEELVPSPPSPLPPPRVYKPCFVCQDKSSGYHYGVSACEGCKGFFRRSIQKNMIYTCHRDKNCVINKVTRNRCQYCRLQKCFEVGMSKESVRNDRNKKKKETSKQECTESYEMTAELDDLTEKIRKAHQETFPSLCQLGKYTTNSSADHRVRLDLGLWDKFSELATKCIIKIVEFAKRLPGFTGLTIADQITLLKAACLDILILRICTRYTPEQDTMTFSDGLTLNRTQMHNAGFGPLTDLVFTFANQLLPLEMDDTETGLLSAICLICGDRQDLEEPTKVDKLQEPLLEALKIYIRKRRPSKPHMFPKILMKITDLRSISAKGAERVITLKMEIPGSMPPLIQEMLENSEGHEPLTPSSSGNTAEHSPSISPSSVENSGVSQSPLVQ
Description: The RARγ agonist selectivity of a compound can be determined by routine ligand binding assays known to one of skill in the art such as described in C. Apfel et al., Proc. Nat.

[1] = tested on: elastase-induced emphysema; test: Alveolar repair in rat model of elastase-induced emphysema, intraperitoneal; type: in vivo, male Sprague Dawley rats; design: Alveolar Area: unit not given here
Procedure: Animals were divided into treatment groups of approximately eight. […] Three weeks post injury ATRA or a RAR selective agonist was dissolved in DMSO (20 mg/ml) and stored at -20 C. Fresh working stocks were prepared fresh daily by dilution in corn oil to a final concentration of 2 mg/ml. […] Control groups were challenged with elastase and 21 days later treated with Vehicle (DMSO/PBS) for 14 days. Animals were sacrificed 24 hours after the last dose of by exsanguination under deep anesthesia. Blood was collected at time of exanguination for analysis of changes in blood chemistry from respective treatments. The lungs were inflated with 10% neutral buffered formalin by intratracheal instillation at a constant rate (1 ml/gram body mass/min). The lung was excised and immersed in fixative for 24 hours prior to processing. Standard methods were used to prepare 5 um paraffin sections. Sections were stained with Hematoxylin and Eosin (H%E). Computerized Morphometric analysis was performed to determine the average alveolar size and alveolar number.

elastase damaged rats = test: Pulmonary gas exchange in elastase damaged rats; type: in vivo
Procedure: Pulmonary and arterial blood gases were determined in elastase damaged rats±retinoid treatment prior to termination of study. Rats were placed under deep anesthesia using pentobarbital (50 mg/kg, i.p. and a tracheal cannula (PE 240) was inserted. The rats were artificially ventilated (f=90, TV=approx 0.5 ml/100 g BW) using a small animal respiratory pump (Harvard). For each rat, the pump parameters were adjusted to establish an arterial CO2 level for the pulmonary artery (PCO2) of 30-35 torr. Arterial blood samples (approx 0.2 ml) were taken from the abdominal aorta (AO2) and immediately analyzed by pHOx blood gas. Data are presented as percent (%) recovery relative to elastase +vehicle treated rats.

CCCCCCc1cc2c(cc1/C=C/c1ccc(C(=O)O)cc1)C(C)(C)CCC2(C)C [RAR Agonist 3] was tested, and the pIC50 (RARβ) was 5.52, the “% Repair” value ([1]; 0.5 mg/kg ip once daily, from 21 days post injury, 14 days) was over 70% and the “Alveolar Area” value ([1]; 0.5 mg/kg ip once daily, from 21 days post injury, 14 days, naive 1637 +/- 153, elastase + vehicle 3570 +/- 319) was 1929 +/- 150. For the same molecule, the “alveolar repair (in words)” value ([1]; elastase-treated rats, 0.5 mg/kg ip) was “markedly induce alveolar repair”, the “light micrographs of lung sections (in words)” value ([1]; rat lung damaged by elastase and then treated, compared to normal rat lung) was “showed alveolar area similar to the normal rat lung” and the “PCO2, recovery relative to elastase + vehicle treated rats” value (elastase damaged rats; 0.01 mg/kg) was 84.6%. The “PO2, recovery relative to elastase + vehicle treated rats” value (elastase damaged rats; 0.01 mg/kg) was 49.8%, the “AO2, recovery relative to elastase + vehicle treated rats” value (elastase damaged rats; abdominal aorta, 0.01 mg/kg) was 100% and the “gas exchange (in words)” value (elastase damaged rats; elastase-damaged rats) was “more effective and more potent than the pan agonist (ATRA)”.
